Test results taken from patent US20050276867A1, “Stabilized compositions comprising a therapeutically active agent and an oxidizing preservative” (ALLERGAN, INC., priority 2004, published 2005).

Tests used:
[1] = for Stabilized Chlorine Dioxide Concentration, 0 Days / Stabilized Chlorine Dioxide Concentration, 7 Days / Stabilized Chlorine Dioxide Concentration, 14 Days: ingredient added at ppm shown (100) to brimonidine composition; for Stabilization of chlorine dioxide by the excipient (in words): summary of Table 1
Experimental: Each of the excipients was added, in the amounts shown, to a proprietary composition comprising brimonidine as a therapeutically active agent.

[2] = chlorine dioxide to ClO2-; permanganate to manganese dioxide; cited from earlier work

| SMILES | Stabilized Chlorine Dioxide Concentration, 0 Days [1] | Stabilized Chlorine Dioxide Concentration, 7 Days [1] | Stabilized Chlorine Dioxide Concentration, 14 Days [1] | Stabilization of chlorine dioxide by the excipient (in words) [1] | Standard reduction potential [2] |
| --- | --- | --- | --- | --- | --- |
| O=C(O)CN(CCN(CC(=O)O)CC(=O)O)CC(=O)O [EDTA] | 44 ppm | 2 ppm | 0 ppm | do not stabilize the chlorine dioxide |  |
| NCCN [Ethylene diamine] |  |  |  | do not stabilize the chlorine dioxide |  |
| O=C([O-])/C(O)=C(\O)C(=O)[O-].[Na+].[Na+] [Sodium Dihydroxyfurmarate] | 37 ppm | 13 ppm | 0 ppm |  |  |
| O=C[O-].[Na+] [Sodium Formate] | 42 ppm | 40 ppm | 36 ppm |  |  |
| CC(O)C(=O)[O-].[Na+] (centres unmarked) [Sodium Lactate] | 45 ppm | 40 ppm | 37 ppm |  |  |
| O=C([O-])C(=O)[O-].[Na+].[Na+] [Sodium Oxalate] | 39 ppm | 38 ppm | 35 ppm | ineffective |  |
| CC(=O)C(=O)[O-].[Na+] [Sodium Pyruvate] |  |  |  | ineffective |  |
| [O][Cl+][O-] [chlorine dioxide] |  |  |  |  | 1.07 V |
